Consider eleven compounds from patent US8048925B2, “Bis(thio-hydrazide amide) salts for treatment of cancers” (Synta Pharmaceuticals Corp., priority 2004, dated 2011).

Read-outs that look alike come from different tables or passages of the source.

Data set [1] in a line: Solubility in water, saturated suspension filtered and measured by HPLC. Type of data set: physicochemical. As to conditions: for solubility: thermodynamic from solid; for water solubility compared with the corresponding neutral or monosalt compounds: result in words. On the procedure:
A compound was weighed and water was added to the compound such that the resulting concentration of the compound was about 100 mg/mL. The mixture was then shaken well and sonicated (about 5-10 min at about 50° C.). If the added amounts of the compound were totally solubilized, more amounts of the compound were added to the solution and the mixture was shaken well and sonicated until a suspension was achieved. The suspension was then filtered through a 0.2 μm filter. The filtered solution was diluted with DMSO. Then the mixture was analyzed by HPLC to determine the concentration of the compound.
The HPLC system consisted of the HP 1100 Model (Agilent, Wilmington, Del.) equipped with a model 1100 quaternary pump, a model 1100 autosampler, a model 1100 Diode-Array Detector for UV detection at 280 nm. HPLC analysis was performed using a gradient mobile phase consisting of acetonitrile-water containing 0.1% formic acid. Mobile phases were degassed and filtered through a solvent filtration apparatus and pumped at a constant rate of 1.0 mL/min. Separation was made on an XTerra MS C18 analytical column, 4.6 mm i.d.×150 mm, (Waters Corp., Milford, Mass., USA) fitted with a pre-column filter (XTerra MS C18, 3.9 mm×20 mm). The column was maintained at 40° C.

Data set [2] in a line: Pharmacokinetics study in dog, bioavailability AUCpo/AUCiv. It counts as in vivo. On the procedure: Male beagle dogs were acclimated for at least one week prior to use, were fed laboratory chow and water ad libitum, and were housed in temperature and humidity controlled rooms. Compounds were prepared as a solution for intravenous injection or a capsule for oral administration. Three dogs were used for the study. Compounds were injected intravenously via cephalic vein or by oral gavage. The dose was adjusted based on the animal's body weight. Blood samples were collected at intervals of 5, 10 and 30 min and 1, 2, 4, 6, 8 and 24 hr (example) after administration of the compound and plasma samples were prepared after centrifugation (5000 rpm, 8 min) of whole blood samples. Compound in plasma was measured by a liquid chromatography with tandem mass spectrophotometer (LC/MS/MS) after 50 μl of these samples were extracted by protein precipitation with acetonitrile. The compound concentration was determined by the standard curve (concentration vs. peak area) made with the same extraction procedure of controlled plasma. The area under curve (AUC) was calculated using the modified trapezoidal method. The portion of AUC from the last measurable plasma concentration to infinity was estimated by C/k, where k was expressed by the least square regression of the log-linear concentration time points and C represents the last measurable plasma concentration. Bioavailability was calculated by AUCpo/AUCiv.
Compounds (1) and (3) and its internal standard were extracted from heparinized plasma by protein precipitation with acetonitrile. Chromatography was achieved on an XTerra column (Waters, particle size: 5 μm; 100 mm×3.0 mm i.d.) using a mixture of acetonitrile, water and formic acid. Analysis was performed on a Sciex API 365 tandem mass spectrometer with turbo ion spray interface. Negative ions were measured using the multiple-reaction-monitoring (MRM) mode with m/z 399.0→165.1. The run time was 9 min per sample, and Compounds (1) and (3) were quantitated by a peak area ratio using 1/×^2-weighted least-square linear regression plot.

Setting [3] is: water, shaken and sonicated about 5-10 min at about 50° C., filtered 0.2 μm, HPLC.
[4] abbreviates: water, shaken and sonicated about 5-10 min at about 50° C., filtered 0.2 μm, HPLC, read-out: Solubility in water.

`CN(NC(=O)CC(=O)NN(C)C(=S)c1ccccc1)C(=S)c1ccccc1` [Compound 1, Disodium; 2-(N′-methyl-N′-thiobenzoyl-hydrazinocarbonyl)-1-(methyl-thiobenzoyl-hydrazono)-ethanolate]: in data set [1] (50 °C, water, read-out: water solubility), the solubility was greater than 1000 mg/mL. Moreover, in data set [1], the “water solubility compared with the corresponding neutral or monosalt compounds” value is recorded as “significantly greater water solubility”. This compound showed a Solubility in water in data set [1] (setting [3]) greater than 1000 mg/mL. The bioavailability in data set [2] (male, beagle, plasma, oral, see Example 16 (dog), read-out: bioavailability) turned out to be 80%.
`CN(/N=C(\[O-])CC(=O)NN(C)C(=S)c1ccccc1)C(=S)c1ccccc1.[Na+]` [Compound 3, Sodium; 2-(N′-methyl-N′-thiobenzoyl-hydrazinocarbonyl)-1-(methyl-thiobenzoyl-hydrazono)-ethanolate]: in data set [1] (setting [4]), the solubility stood at 52.8 mg/mL. Further, in data set [2] (dog, plasma, male beagle dogs, capsule oral vs intravenous solution, AUCpo/AUCiv, read-out: Bioavailability), the bioavailability came to 35%.
On to `CN(/N=C(\[O-])CC(=O)NN(C)C(=S)c1ccccc1)C(=S)c1ccccc1.[Li+]` [Compound 4, Lithium; 2-(N′-methyl-N′-thiobenzoyl-hydrazinocarbonyl)-1-(methyl-thiobenzoyl-hydrazono)-ethanolate], for which the solubility in data set [1] (setting [4]) worked out at 53.5 mg/mL.
Take `CN(/N=C(\[O-])C/C([O-])=N/N(C)C(=S)c1ccccc1)C(=S)c1ccccc1.[Li+].[Li+]` [Compound 5, Dilithium; 2-(N′-methyl-N′-thiobenzoyl-hydrazinocarbonyl)-1-(methyl-thiobenzoyl-hydrazono)-ethanolate]: the “water solubility compared with the corresponding neutral or monosalt compounds” value in data set [1] was “significantly greater water solubility”. Also, the solubility in data set [1] (setting [4]) worked out at 626 mg/mL.
In the case of `CN(/N=C(\[O-])C/C([O-])=N/N(C)C(=S)c1ccccc1)C(=S)c1ccccc1.[Mg+2]` [Compound 8, Magnesium; 2-(N′-methyl-N′-thiobenzoyl-hydrazinocarbonyl)-1-(methyl-thiobenzoyl-hydrazono)-ethanolate], in data set [1] (setting [4]), the solubility came out at 43.5 mg/mL.
On the same count and under the same terms, to `CN(/N=C(\[O-])CC(=O)NN(C)C(=S)c1ccccc1)C(=S)c1ccccc1.[K+]` [Compound 10, Monopotassium; 2-(N′-methyl-N′-thiobenzoyl-hydrazinocarbonyl)-1-(methyl-thiobenzoyl-hydrazono)-ethanolate] belongs 41.2 mg/mL.
As to `CN(/N=C(\[O-])C/C([O-])=N/N(C)C(=S)C1(C)CC1)C(=S)C1(C)CC1.[Na+].[Na+]` [Compound 12, Disodium; 2-(N′-methyl-N′-thio-1-methylcyclopropyl-hydrazinocarbonyl)-1-(methyl-thio-1-methylcyclopropyl-hydrazono)-ethanolate], the “water solubility compared with the corresponding neutral or monosalt compounds” value in data set [1] is “significantly greater water solubility”. In addition, the solubility in data set [1] (setting [4]) is greater than 1000 mg/mL.
Turning to `CN(/N=C(\[O-])C/C([O-])=N/N(C)C(=S)C1CC1)C(=S)C1CC1.[Na+].[Na+]` [Compound 13, Disodium; 2-(N′-methyl-N′-thiocyclopropyl-hydrazinocarbonyl)-1-(methyl-thiocyclopropyl-hydrazono)-ethanolate], the “water solubility compared with the corresponding neutral or monosalt compounds” value in data set [1] is given as “significantly greater water solubility”. Also, the solubility in data set [1] (setting [4]) is greater than 1000 mg/mL.
Taken in the same sequence, the figures for `CN(/N=C(\[O-])C/C([O-])=N/N(C)C(=S)C1(C)CC1)C(=S)C1(C)CC1.[K+].[K+]` [Compound 14, Dipotassium; 2-(N′-methyl-N′-thio-1-methylcyclopropyl-hydrazinocarbonyl)-1-(methyl-thio-1-methylcyclopropyl-hydrazono)-ethano late] were “significantly greater water solubility” and greater than 1000 mg/mL.
Turning to `CN(NC(=O)CC(=O)NN(C)C(=S)c1ccccc1)C(=S)c1ccccc1` [Neutral Form of Compound 1, N-Malonyl-bis(N′-thiobenzoyl-N′-methyl hydrazide)], in data set [1] (water, listed as neutral form of Compounds (1) and (2)), the water solubility entry is “about 0.1 mg/ml”. This compound came in with a Solubility in water in data set [1] (setting [3]) of less than 0.1 mg/mL. The bioavailability in data set [2] (male beagle dogs, capsule oral vs intravenous solution, AUCpo/AUCiv) is given as 4.8%; in data set [2] (see Example 16 (dog)), 4.8%.
Take “Cholin; 2-(N′-methyl-N′-thiobenzoyl-hydrazinocarbonyl)-1-(methyl-thiobenzoyl-hydrazono)-ethanolate [Compound 11]”: the Solubility in water in data set [1] (setting [3]) was 264.0 (>200) mg/mL.
